Results reported in PubChem BioAssay (NCI).
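A five-concentration, 48-hour dose response in 96-well plates underlies each endpoint, interpolated linearly between surrounding concentrations. TGI: concentration producing complete growth inhibition.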

Assays:
Assay in all cases: NCI tumour cell line growth inhibition, 48 h
786-0 renal = tested on: 786-0 renal
A498 renal = tested on: A498 renal
A549 NSCLC = tested on: A549 NSCLC
ACHN renal = tested on: ACHN renal
CAKI-1 renal = tested on: CAKI-1 renal
CCRF-CEM leukemia = tested on: CCRF-CEM leukemia
COLO 205 colon = tested on: COLO 205 colon
DLD-1 colon = tested on: DLD-1 colon
DMS 114 small cell lung = tested on: DMS 114 small cell lung
DMS 273 small cell lung = tested on: DMS 273 small cell lung
EKVX NSCLC = tested on: EKVX NSCLC
HCC-2998 colon = tested on: HCC-2998 colon
HCT-116 colon = tested on: HCT-116 colon
HCT-15 colon = tested on: HCT-15 colon
HL-60(TB) leukemia = tested on: HL-60(TB) leukemia
HOP-18 NSCLC = tested on: HOP-18 NSCLC
HOP-62 NSCLC = tested on: HOP-62 NSCLC
HOP-92 NSCLC = tested on: HOP-92 NSCLC
HT29 colon = tested on: HT29 colon
IGROV1 ovarian = tested on: IGROV1 ovarian
K-562 leukemia = tested on: K-562 leukemia
KM12 colon = tested on: KM12 colon
KM20L2 colon = tested on: KM20L2 colon
LOX IMVI melanoma = tested on: LOX IMVI melanoma
LXFL 529 NSCLC = tested on: LXFL 529 NSCLC
M14 melanoma = tested on: M14 melanoma
M19-MEL melanoma = tested on: M19-MEL melanoma
MALME-3M melanoma = tested on: MALME-3M melanoma
NCI-H23 lung = tested on: NCI-H23 lung
NCI-H460 lung = tested on: NCI-H460 lung
NCI-H522 lung = tested on: NCI-H522 lung
OVCAR-3 ovarian = tested on: OVCAR-3 ovarian
OVCAR-5 ovarian = tested on: OVCAR-5 ovarian
OVCAR-8 ovarian = tested on: OVCAR-8 ovarian
RPMI-8226 leukemia = tested on: RPMI-8226 leukemia
SF-268 CNS = tested on: SF-268 CNS
SF-295 CNS = tested on: SF-295 CNS
SF-539 CNS = tested on: SF-539 CNS
SK-MEL-2 melanoma = tested on: SK-MEL-2 melanoma
SK-MEL-28 melanoma = tested on: SK-MEL-28 melanoma
SK-MEL-5 melanoma = tested on: SK-MEL-5 melanoma
SK-OV-3 ovarian = tested on: SK-OV-3 ovarian
SN12C renal = tested on: SN12C renal
SNB-19 CNS = tested on: SNB-19 CNS
SNB-75 CNS = tested on: SNB-75 CNS
SNB-78 CNS = tested on: SNB-78 CNS
SW-620 colon = tested on: SW-620 colon
TK-10 renal = tested on: TK-10 renal
U251 CNS = tested on: U251 CNS
UACC-257 melanoma = tested on: UACC-257 melanoma
UACC-62 melanoma = tested on: UACC-62 melanoma
UO-31 renal = tested on: UO-31 renal
MOLT-4 leukemia = tested on: MOLT-4 leukemia
NCI-H226 lung = tested on: NCI-H226 lung
OVCAR-4 ovarian = tested on: OVCAR-4 ovarian
RXF 393 renal = tested on: RXF 393 renal
SR leukemia = tested on: SR leukemia

O=C1Cc2nc(CO)c(CO)c(CO)c2CO1
TGI (786-0 renal): > 100 µM | TGI (A498 renal): > 100 µM | TGI (A549 NSCLC): > 100 µM | TGI (ACHN renal): > 100 µM | TGI (CAKI-1 renal): > 100 µM | TGI (CCRF-CEM leukemia): > 100 µM | TGI (COLO 205 colon): > 100 µM | TGI (DLD-1 colon): > 100 µM | TGI (DMS 114 small cell lung): > 100 µM | TGI (DMS 273 small cell lung): > 100 µM | TGI (EKVX NSCLC): > 100 µM | TGI (HCC-2998 colon): > 100 µM | TGI (HCT-116 colon): > 100 µM | TGI (HCT-15 colon): > 100 µM | TGI (HL-60(TB) leukemia): > 100 µM | TGI (HOP-18 NSCLC): > 100 µM | TGI (HOP-62 NSCLC): > 100 µM | TGI (HOP-92 NSCLC): > 100 µM | TGI (HT29 colon): > 100 µM | TGI (IGROV1 ovarian): > 100 µM | TGI (K-562 leukemia): > 100 µM | TGI (KM12 colon): > 100 µM | TGI (KM20L2 colon): > 100 µM | TGI (LOX IMVI melanoma): > 100 µM | TGI (LXFL 529 NSCLC): > 100 µM | TGI (M14 melanoma): > 100 µM | TGI (M19-MEL melanoma): > 100 µM | TGI (MALME-3M melanoma): > 100 µM | TGI (NCI-H23 lung): > 100 µM | TGI (NCI-H460 lung): > 100 µM | TGI (NCI-H522 lung): > 100 µM | TGI (OVCAR-3 ovarian): > 100 µM | TGI (OVCAR-5 ovarian): > 100 µM | TGI (OVCAR-8 ovarian): > 100 µM | TGI (RPMI-8226 leukemia): > 100 µM | TGI (SF-268 CNS): > 100 µM | TGI (SF-295 CNS): > 100 µM | TGI (SF-539 CNS): > 100 µM | TGI (SK-MEL-2 melanoma): > 100 µM | TGI (SK-MEL-28 melanoma): > 100 µM | TGI (SK-MEL-5 melanoma): > 100 µM | TGI (SK-OV-3 ovarian): > 100 µM | TGI (SN12C renal): > 100 µM | TGI (SNB-19 CNS): > 100 µM | TGI (SNB-75 CNS): > 100 µM | TGI (SNB-78 CNS): > 100 µM | TGI (SW-620 colon): > 100 µM | TGI (TK-10 renal): > 100 µM | TGI (U251 CNS): > 100 µM | TGI (UACC-257 melanoma): > 100 µM | TGI (UACC-62 melanoma): > 100 µM | TGI (UO-31 renal): > 100 µM

COC(=O)C1=C(C)N2CCSC2(C)C(C(=O)OC)C1c1cccc(Cl)c1 (stereo not given)
TGI (A549 NSCLC): 65.3 µM | TGI (ACHN renal): > 100 µM | TGI (CAKI-1 renal): 70 µM | TGI (CCRF-CEM leukemia): 69.5 µM | TGI (COLO 205 colon): 35.4 µM | TGI (DMS 114 small cell lung): 44.6 µM | TGI (EKVX NSCLC): 42.1 µM | TGI (HCC-2998 colon): 40 µM | TGI (HCT-116 colon): 34.9 µM | TGI (HL-60(TB) leukemia): 49.3 µM | TGI (HOP-62 NSCLC): 38.2 µM | TGI (HOP-92 NSCLC): 53.2 µM | TGI (HT29 colon): 33.4 µM | TGI (IGROV1 ovarian): > 100 µM | TGI (K-562 leukemia): > 100 µM | TGI (KM12 colon): 62.3 µM | TGI (KM20L2 colon): 43.4 µM | TGI (LXFL 529 NSCLC): 72.5 µM | TGI (M14 melanoma): 89.3 µM | TGI (M19-MEL melanoma): 31.9 µM | TGI (MOLT-4 leukemia): 45.6 µM | TGI (NCI-H226 lung): 47.4 µM | TGI (NCI-H23 lung): 73.8 µM | TGI (NCI-H460 lung): 74.5 µM | TGI (OVCAR-3 ovarian): 34.6 µM | TGI (OVCAR-4 ovarian): > 100 µM | TGI (OVCAR-8 ovarian): > 100 µM | TGI (RPMI-8226 leukemia): 81.7 µM | TGI (RXF 393 renal): 53.5 µM | TGI (SF-268 CNS): 43.7 µM | TGI (SF-295 CNS): 34 µM | TGI (SF-539 CNS): 24.9 µM | TGI (SK-MEL-2 melanoma): 34.2 µM | TGI (SK-MEL-28 melanoma): 46.9 µM | TGI (SK-MEL-5 melanoma): 29 µM | TGI (SNB-19 CNS): 73.2 µM | TGI (SNB-75 CNS): 42.9 µM | TGI (SR leukemia): 66.7 µM | TGI (SW-620 colon): > 100 µM | TGI (TK-10 renal): > 100 µM | TGI (UACC-257 melanoma): 21.7 µM | TGI (UACC-62 melanoma): 32.6 µM | TGI (UO-31 renal): 38.3 µM
